Results as given in PMC8557866, “Novel Small Molecule Growth Inhibitor Affecting Bacterial Outer Membrane Reduces Extraintestinal Pathogenic Escherichia coli (ExPEC) Infection in Avian Model” (Microbiology Spectrum, 2021).
Values after ≈ are worked out from the molar mass of the structure shown.

What was measured:
[1] = system: APEC O78; parameters: method as in PMID 30333507; conditions: cited from earlier work
[2] = system: APEC serotype O78; conditions: for Cumulative lesion score: PC 6.2; for Mortality reduction compared to PC group: PC mortality 58.3%; for % reduction in severity, Air sacs lesions / % reduction in severity, Heart lesions / % reduction in severity, Liver lesions / % reduction in severity, Lung lesions / log reduction in APEC load, Heart / log reduction in APEC load, Kidney / log reduction in APEC load, Liver / log reduction in APEC load, Lung: vs PC; for BWG (body weight gain): in vivo
Method: The efficacy of GIs was assessed using commercial broiler chickens (n = 6/group). […] GI compounds (ChemBridge, San Diego, CA) dissolved in dimethyl sulfoxide (DMSO) were administered orally using a syringe, twice a day, from day 4 (1 day before APEC infection) to day 8 (3 days postinfection [dpi]). The dose of each GI is described in Table S1. […] Chickens that were infected and vehicle-treated (positive control [PC]) and noninfected and nontreated (negative control [NC]) were included as controls. On day 5, chickens were infected subcutaneously (s.c.) with rifampin-resistant (Rif^r) APEC serotype O78 ([18]) (1 × 10^7 CFU/chicken). […] To prepare the APEC inoculum for infection, Rif^r APEC O78 (50 μg/ml rifampin) was grown to logarithmic phase in LB medium, washed twice with phosphate-buffered saline (PBS), and adjusted to an optical density at 600 nm (OD600) of 0.1 (5 × 10^7 CFU/ml). The clinical signs and mortality were recorded until 7 dpi. Chickens that died during this period were necropsied on the same day, lesions in internal organs (liver, heart, lung, and air sacs) were scored as described previously ([63], [71]), and the APEC loads were quantified in internal organs (liver, heart, lung, and kidney) by plating the tissue homogenates on MacConkey agar plates containing 50 μg/ml rifampin ([18]). At 7 dpi (day 12), all live birds were euthanized, lesions were scored, and the APEC loads in internal organs were quantified as described above. The body weight of chickens was measured before GI treatment (day 3) and at the day of necropsy (day 12).

[3] = system: APEC; assay: microbe, parasite or virus in culture; type: cell-based, Escherichia coli; conditions: Escherichia coli

Row | Compound | MIC [1] [µM] | Mean APEC load, Heart ([2]; efficacy trial, oral) [Log CFU/g tissues] | Mean APEC load, Kidney ([2]; efficacy trial, oral) [Log CFU/g tissues] | Mean APEC load, Liver ([2]; efficacy trial, oral) [Log CFU/g tissues] | Mean APEC load, Lung ([2]; efficacy trial, oral) [Log CFU/g tissues] | Mean lesion score in Air sacs ([2]; efficacy trial, oral) | Mean lesion score in Heart ([2]; efficacy trial, oral) | Mean lesion score in Liver ([2]; efficacy trial, oral) | Mean lesion score in Lung ([2]; efficacy trial, oral) | Cumulative lesion score ([2]; efficacy trial, oral) | Mortality reduction compared to PC group ([2]; efficacy trial, oral) [%] | % reduction in severity, Air sacs lesions ([2]; efficacy trial, oral) [%] | % reduction in severity, Heart lesions ([2]; efficacy trial, oral) [%] | % reduction in severity, Liver lesions ([2]; efficacy trial, oral) [%] | % reduction in severity, Lung lesions ([2]; efficacy trial, oral) [%] | log reduction in APEC load, Heart ([2]; efficacy trial, oral) [Log CFU/g tissues] | log reduction in APEC load, Kidney ([2]; efficacy trial, oral) [Log CFU/g tissues] | log reduction in APEC load, Liver ([2]; efficacy trial, oral) [Log CFU/g tissues] | log reduction in APEC load, Lung ([2]; efficacy trial, oral) [Log CFU/g tissues] | BWG (body weight gain) [2] | further results
1 | CC(=O)OC(C(Br)C(=O)c1ccc([N+](=O)[O-])cc1)C(Cl)(Cl)Cl (centres unmarked) [GI-10] | 25 (≈ 10.8 µg/mL) | 3.9 | 3.1 | 3.9 | 3.7 | 1.7 | 2.2 | 1.3 | 1 | 6.2 | 41.7 | −17.6 | −4 | 20 | 0 | 1.0 | 2.4 | 0.8 | 1.4 | 220.8±38.9 | Survival of chickens ([2]; efficacy trial, oral, P ≤ 0.1, log rank test): prolonged the survival; MBC [3]: 50 µM (≈ 21.7 µg/mL); MIC [3]: 25 µM (≈ 10.8 µg/mL)
2 | CC1CCCN(CCC(=O)c2ccc(Br)cc2)C1 (centres unmarked) [GI-1] | 200 (≈ 62 µg/mL) | 6.8 | 6.6 | 6.7 | 6.4 | 1.5 | 2.0 | 2.0 | 0.7 | 6.2 | 8.3 | −5.9 | 4 | −20 | 33.3 | -1.8 | -1.1 | -2.0 | -1.4 | 165.6±69.2 | –
3 | COc1cc(CNCCc2ccc(C)cc2)ccc1OCC(O)CN1CCCC1 (centres unmarked) [GI-3] | 100 (≈ 39.9 µg/mL) | 7.0 | 6.9 | 6.5 | 7.0 | 1.8 | 2 | 2 | 1 | 6.8 | – | −29.4 | 4 | −20 | 0 | -2.1 | -1.4 | -1.8 | -2.0 | 254.6±95 | –
